For data set [1], the target named is wild-type Choristoneura fumiferana EcR (D, E and F domains) (Choristoneura fumiferana, UniProt O77240). Format: cell-based. As to conditions: WT-CtEcR, 3T3 Cells; for RMFI (relative maximum fold induction): relative to GS-E ligand. The procedure:
(§1) Cellular gene switch assays were performed by transiently transfecting the following constructs in mouse embryonic fibroblast cells (NIH3T3). The wild-type D, E and F domains from Choristoneura fumiferana EcR or its V390I/Y410E/E274V mutant were fused to GAL4-DBD and placed under the control of the CMV promoter in the pBIND vector (Promega Corporation, Madison, Wis., USA). The DEF domains of EcRs shown were amplified using primers designed based on 20-25 nt sequences at the 5′ and 3′ ends. Restriction enzyme sites EcoR I/BamH I and Xba I were added to 5′ and 3′ primers respectively. The PCR products were digested with appropriate restriction enzymes and cloned into pBIND vector. The EcR LBDs cloned into pBIND vector were verified by sequencing. A chimeric RXR from Homo sapiens RXRP and Locusta migratoria RXR, fused to VP16-AD and placed under the control of an SV40e promoter, was constructed as previously described (Kumar P & Katakam A in Gene Transfer, Friedmann T and Rossi J, eds, pp. 643-651 (2007), Cold Spring Harbor Laboratory Press, Cold Spring Harbor, N.Y.). The inducible luciferase reporter plasmid pFRLuc (Stratagene Cloning Systems, La Jolla, Calif., USA), contains five copies of the GAL4 response element and a synthetic minimal promoter.
(§2) NIH3T3 cells were maintained at 37′C and 5% CO2 in Dulbecco's modified Eagle's medium (DMEM) supplemented with 10% bovine calf serum, both obtained from Mediatech Inc., Manassas, Va. Cells were planted in a 96-well plate at a density of 2,500 cells/well in 50 μL of growth medium. The following day cells were first treated with 35 μL of serum-free DMEM containing dimethyl sulfoxide (DMSO; control) or a DMSO solution containing ligand. Cells were then transfected with 15 μl of serum-free DMEM containing 0.04 μg of EcR construct, 0.04 ug of RXR construct, and 0.16 μg of luciferase reporter construct per well, using SuperFect™ transfection reagent (Qiagen Inc., Valencia, Calif., USA) according to the manufacturer's instructions. Ligands were tested at 8 doses from 0.01-33 μM and the final DMSO concentration was 0.33% in both control and treatment wells. After a 48 hour post-treatment and transfection incubation, the cells were assayed for luciferase activity using the Bright-Glo™ Luciferase Assay System (Promega Corporation, Madison, Wis., USA) following the manufacturer's instructions. EC50 values were measured minimally in duplicate.
(§3) Luciferase reporter gene expression was measured 48 h after cell treatment using Bright-Glo™ Luciferase Assay System from Promega (E2650). Luminescence was detected at room temperature using a Dynex MLX microtiter plate luminometer.
(§4) Each assay was conducted in two separate wells, and the two values were averaged. Fold inductions were calculated by dividing relative light units (“RLU”) in ligand treated cells with RLU in DMSO treated cells. EC50s were calculated from dose response data using a three-parameter logistic model. Relative Max FI was determined as the maximum fold induction of the tested ligand (an embodiment of the invention) observed at any concentration relative to the maximum fold induction of GS™-E ligand (3,5-dimethyl-benzoic acid N-tert-butyl-N′-(2-ethyl-3-methoxy-benzoyl)-hydrazide) observed at any concentration.

In data set [2] the target is T1, [V390I/Y410E/E274V]-CfEcR (Choristoneura fumiferana, UniProt O77240).
T1 construct: assay construct b835
Format: cell-based. As to conditions: 3T3 Cells; for RMFI (relative maximum fold induction): relative to GS-E ligand. As to the method: as §1, §2, §3, §4

19 molecules from US20200270225A1, “Chiral Diacylhydrazine Ligands for Modulating the Expression of Exogenous Genes via an Ecdysone Receptor Complex” (Intrexon Corporation, priority 2007, published 2020) can be followed below.

Where two headings read alike, the source gives them in different places.

In general, EC50 refers to the concentration giving half of the maximal effect.

`CCC[C@H](C1CCCCC1)N(NC(=O)c1ccccc1)C(=O)c1cc(C)cc(C)c1` [Example 53, (R)-3,5-Dimethyl-benzoic acid N′-benzoyl-N-(1-cyclohexyl-butyl)-hydrazide]: in data set [1] (R), the EC50 is about 3300 nM and the “RMFI (relative maximum fold induction)” value is 0.30. Besides, in data set [2] (R), a half-maximal response (EC50) required 629 nM and the “RMFI (relative maximum fold induction)” value came to 0.62.

With `CCC[C@H](N(NC(=O)c1cccnc1Cl)C(=O)c1cc(C)cc(C)c1)C(C)(C)C` [Example 45, (S)-3,5-Dimethylbenzoic acid N-(1-tert-butyl-butyl)-N′-(2-chloro-pyridine-3-carbonyl)-hydrazide], the concentration giving a half-maximal response (EC50) in data set [1] (S) is about 20000 nM; in data set [2] (S), 1470 nM. Also, the figures for the “RMFI (relative maximum fold induction)” value in data set [1] (S) and in data set [2] (S) were 0.05 and 0.80, respectively.

Consider `CCC[C@@H](N(NC(=O)c1ccc(Cl)nc1)C(=O)c1cc(C)cc(C)c1)C(C)(C)C` [Example 28, (R)-3,5-Dimethyl-benzoic acid N-(1-tert-butyl-butyl)-N′-(6-chloro-pyridine-3-carbonyl)-hydrazide], for which, in data set [1] (R), the response was half-maximal at 243 nM (EC50) and the “RMFI (relative maximum fold induction)” value is listed as 0.38. Moreover, in data set [2] (R), the EC50 is about 20 nM and the “RMFI (relative maximum fold induction)” value came out at 0.78.

As to `Cc1cc(C)cc(C(=O)N(NC(=O)OCc2ccccc2)[C@H](CCCO)C(C)(C)C)c1` [Example 64, (R)—N′-(1-tert-Butyl-4-hydroxy-butyl)-N′-(3,5-dimethyl-benzoyl)-hydrazine carboxylic Acid benzyl ester], in data set [1] (R), the concentration giving a half-maximal response (EC50) is over 33000 nM and the “RMFI (relative maximum fold induction)” value came out at 0.02. Further, in data set [2] (R), the half-maximal effective concentration (EC50) was about 8000 nM and the “RMFI (relative maximum fold induction)” value came out at 0.33.

Consider `CCCC(N(NC(=O)OC(C)(C)C)C(=O)c1cc(C)cc(C)c1)C(C)(C)C` (racemic) [rac-49, rac-N′-(1-tert-Butyl-butyl)-N′-(3,5-dimethyl-benzoyl)-hydrazinecarboxylic acid tert-butyl ester], for which the EC50 was over 33000 nM in data set [1] (rac) and about 4000 nM in data set [2] (rac). In addition, the “RMFI (relative maximum fold induction)” value in data set [1] (rac) stood at 0.02; in data set [2] (rac), 0.50.

For `CCCC(N(NC(=O)c1cccc2ccccc12)C(=O)c1cc(C)cc(C)c1)C(C)(C)C` (racemic) [rac-23], the EC50 in data set [1] (rac, read-out: EC50) was found to be 521 nM; in data set [2] (rac, read-out: EC50), 66 nM. The “RMFI (relative maximum fold induction)” value in data set [1] (rac) came out at 0.60; in data set [2] (rac), 0.84.

Take `CCC[C@H](N(NC(=O)c1ccc(C)cc1)C(=O)c1cc(C)cc(C)c1)C(C)(C)C` [Example 38, (S)-3,5-Dimethyl-benzoic acid N-(1-tert-butyl-butyl)-N′-(4-methyl-benzoyl)-hydrazide]: in data set [1] (S), it took 2170 nM to reach a half-maximal effect (EC50) and the “RMFI (relative maximum fold induction)” value is listed as 0.25. Also, in data set [2] (S), the response was half-maximal at 341 nM (EC50) and the “RMFI (relative maximum fold induction)” value is 0.44.

Take `CCCC(N(NC(=O)c1cccc(OC)c1C)C(=O)c1cc(C)cc(C)c1)C(C)(C)C` (racemic) [rac-29]: the half-maximal effective concentration (EC50) in data set [1] (rac, read-out: EC50) is 3.88 nM; in data set [2] (rac, read-out: EC50) it was 0.15 nM. Moreover, the figures for the “RMFI (relative maximum fold induction)” value in data set [1] (rac) and in data set [2] (rac) were 0.98 and 0.77, respectively.

`CCCC(N(NC(=O)c1ccccc1F)C(=O)c1cc(C)cc(C)c1)C(C)(C)C` (racemic) [rac-5]: the EC50 in data set [1] (rac, read-out: EC50) was 81 nM; in data set [2] (rac, read-out: EC50), 1.1 nM. Moreover, the “RMFI (relative maximum fold induction)” value in data set [1] (rac) was determined as 0.59; in data set [2] (rac) it was 0.67.

Consider `CCC[C@H](N(NC(=O)c1ccccc1Br)C(=O)c1cc(C)cc(C)c1)C(C)(C)C` [Example 36, (S)-3,5-Dimethyl-benzoic acid N′-(2-bromo-benzoyl)-N-(1-tert-butyl-butyl)-hydrazide], for which, in data set [1] (S), the EC50 is about 3300 nM and the “RMFI (relative maximum fold induction)” value was determined as 0.11. Further, in data set [2] (S), a half-maximal effect (EC50) was put at 433 nM and the “RMFI (relative maximum fold induction)” value was 0.36.

As for `CCC[C@H](N(NC(=O)c1cccc(OC)c1C)C(=O)c1cc(C)cc(C)c1)C(C)(C)C` [Example 47, (S)-3,5-Dimethyl-benzoic acid N-(1-tert-butyl-butyl)-N′-(3-methoxy-2-methyl-benzoyl)-hydrazide], the EC50 in data set [1] (S) was about 200 nM; in data set [2] (S), 56.3 nM. Besides, the entries for the “RMFI (relative maximum fold induction)” value in data set [1] (S) and in data set [2] (S) were 0.49 and 0.57, respectively.

In the case of `CCC[C@H](N(NC(=O)c1cc(OC)c(C)c(OC)c1)C(=O)c1cc(C)cc(C)c1)C(C)(C)C` [Example 42, (S)-3,5-Dimethyl-benzoic acid N-(1-tert-butyl-butyl)-N′-(3,5-dimethoxy-4-methyl-benzoyl)-hydrazide], the EC50 is over 10000 nM in data set [1] (S) and about 7000 nM in data set [2] (S). In addition, the “RMFI (relative maximum fold induction)” value in data set [2] (S) is on record as 0.08.

Consider `CCC[C@H](C1CCCCC1)N(NC(=O)c1cccc(OC)c1)C(=O)c1cc(C)cc(C)c1` [Example 54, (R)-3,5-Dimethyl-benzoic acid N-(1-cyclohexyl-butyl)-N′-(3-methoxy-benzoyl)-hydrazide], for which, in data set [1] (R), the EC50 was about 3300 nM and the “RMFI (relative maximum fold induction)” value was 0.19. Moreover, in data set [2] (R), the concentration for a half-maximal effect (EC50) was 474 nM and the “RMFI (relative maximum fold induction)” value was 0.44.

With `CCC[C@H](N(NC(=O)c1ccccc1F)C(=O)c1cc(C)cc(C)c1)C(C)(C)C` [Example 34, (S)-3,5-Dimethyl-benzoic acid N-(1-tert-butyl-butyl)-N′-(2-fluoro-benzoyl)-hydrazide], in data set [1] (S), the EC50 stood at 529 nM and the “RMFI (relative maximum fold induction)” value stood at 0.41. For the same molecule, in data set [2] (S), the concentration for a half-maximal effect (EC50) is 86 nM and the “RMFI (relative maximum fold induction)” value came out at 0.64.

Take `CCC[C@H](C1CCCCC1)N(NC(=O)c1cccc(OC)c1CC)C(=O)c1cc(C)cc(C)c1` [Example 52, (R)-3,5-Dimethyl-benzoic Acid N-(1-cyclohexyl-butyl)-N′-(2-ethyl-3-methoxy-benzoyl)-hydrazide]: in data set [1] (R), the concentration for a half-maximal effect (EC50) came out at 220 nM and the “RMFI (relative maximum fold induction)” value came to 0.38. For the same molecule, in data set [2] (R), the EC50 was about 200 nM and the “RMFI (relative maximum fold induction)” value worked out at 0.64.

`C=CC[C@@H](N(NC(=O)OCc1ccccc1)C(=O)c1cc(C)cc(C)c1)C(C)(C)C` [Example 1.5, (R)—N′-(1-tert-butyl-but-3-enyl)-N′-(3,5-dimethyl-benzoyl)-hydrazinecarboxylic acid benzyl ester]: in data set [1] (R), the EC50 was over 10000 nM and the “RMFI (relative maximum fold induction)” value was found to be 0.01. Further, in data set [2] (R), the EC50 was about 2000 nM and the “RMFI (relative maximum fold induction)” value worked out at 0.36.

Consider `CCCC(N(NC(=O)c1cccc(C)c1)C(=O)c1cc(C)cc(C)c1)C(C)(C)C` (racemic) [rac-8], for which the EC50 is 193 nM in data set [1] (rac, read-out: EC50) and 16.2 nM in data set [2] (rac, read-out: EC50). Also, the “RMFI (relative maximum fold induction)” value in data set [1] (rac) came to 0.88; in data set [2] (rac), 0.86.

On to `CCC[C@H](N(NC(=O)c1ccccc1)C(=O)c1cc(C)cc(C)c1)C(C)(C)C` [Example 32], for which, in data set [1] (S), the EC50 was about 3300 nM and the “RMFI (relative maximum fold induction)” value was found to be 0.19. Besides, in data set [2] (S), the EC50 came out at 267 nM and the “RMFI (relative maximum fold induction)” value is given as 0.38.

Turning to `CCC[C@@H](C1CCCCC1)N(NC(=O)c1ccc(CC)cc1)C(=O)c1cc(C)cc(C)c1` [Example 59, (S)-3,5-Dimethyl-benzoic acid N-(1-cyclohexyl-butyl)-N′-(4-ethyl-benzoyl)-hydrazide], in data set [1] (S), the EC50 is about 1000 nM and the “RMFI (relative maximum fold induction)” value worked out at 0.28. In data set [2] (S), the concentration giving a half-maximal response (EC50) was about 30 nM and the “RMFI (relative maximum fold induction)” value amounted to 0.35.
